Laboratory results: a melting point compilation (Tetko et al.)

| SMILES | melting point |
| --- | --- |
| COc1cc(C=C2CCCC(=Cc3ccc(O)c(OC)c3)C2=O)ccc1O | 178 °C |
| CC(=O)c1ccnc(Cl)c1 | 36.5 to 39 °C |
| O=C(O)c1ccc(O)c(C(=O)O)c1 | 310 °C |
| COC(=O)c1cccc([N+](=O)[O-])c1NC(C)=O | 120 to 121 °C |
| c1ccc(-c2oc(-c3ccccc3)c3ccccc23)cc1 | 135 °C |
| CC(=O)C=P(c1ccccc1)(c1ccccc1)c1ccccc1 | 204 °C |
| OCc1cn2ccsc2n1 | 154 to 155 °C |
| CCCCCC(O)c1ccc(O)c(O)c1 (configuration not stated) | 109 °C |
| O=S(=O)(c1ccccc1)n1cc(CO)c2ccccc21 | 90 to 91 °C |
| CCCC(C)(O)CCC | -82 °C |
| NC(CC(=O)O)c1ccc(Cl)cc1 (configuration not stated) | 243 to 245 °C |
| C=C(C)C(=O)CC | -69.5 °C |
| COc1ccc(C(=O)c2cc(OC)c(OC)cc2[N+](=O)[O-])cc1 | 147 °C |
| CNC(=O)C(C)(C(C)C)C(C)C | 60 °C |
| C=CCN(CC=C)C(SC)=C(C#N)C(N)=O | 110 °C |
| NC(=S)Nc1ccc(I)cc1 | 183 to 184 °C |
| OC1OC(c2ccccc2)Cc2ccccc21 (configuration not stated) | 100 to 103 °C |
| O=C(/C=C/c1ccccc1)Oc1ccc(/C=C/C(=O)c2ccccc2)cc1 | 158 °C |
| O=C(Cc1ccccc1)OC(=O)Cc1ccccc1 | 73.3 °C |
| CC(C)(C(N)=O)n1nnc2ccccc21 | 187 °C |
| Cc1nn(Cc2nnc(S)o2)c(C)c1Br | 194 to 195 °C |
| Nc1nnc(-c2ccccc2)c(-c2ccccc2)n1 | 177 to 179 °C |
| OCCN(CCO)CCCc1ccc(COc2ccccc2)cc1 | 63 to 64 °C |
| COc1ccc(Cn2ncc(Cl)c(Cl)c2=O)cc1 | 117 to 120 °C |
| COc1c(O)ccc2c1C(=O)N1CCc3cc4c(cc3[C@@H]1C2)OCO4 | 209 °C |
| Oc1ccc(-c2nnc3n2NC(c2ccco2)S3)cc1 (configuration not stated) | 230 °C |

| SMILES | melting point |
| --- | --- |
| Nc1nnc(S)s1 | 243 to 244 °C |
| CC12CCC(C(=CC(N)=O)C1=O)C2(C)C (configuration not stated) | 152 °C |
| CC(C)(C#N)C#N | 31.5 °C |
| Cc1n[nH]c(C)c1CCBr | 118 to 120 °C |
| O=[N+]([O-])c1ccc(S(=O)(=O)N2CCCC2)cc1 | 151 to 153 °C |
| CC(C)(C)c1cc(N)[nH]n1 | 60 to 62 °C |
| CCc1c2c(nc3ccc(OC(=O)N4CCC(N5CCCCC5)CC4)cc13)-c1cc3c(c(=O)n1C2)COC(=O)C3(O)CC (configuration not stated) | 222 °C |
| Cc1ccc(-c2csc(/C(C#N)=N\Nc3cccc(C)c3)n2)cc1 | 132 °C |
| Cc1cccc(C)c1NC(N)=S | 195 °C |
| CCSc1nc(N)c(Br)c(O)n1 | 300 °C |
| OCC1OC(O)C(F)C(O)C1O (configuration not stated) | 170 to 176 °C |
| N#CCc1c(F)cccc1Cl | 42 °C |
| O=[N+]([O-])C=Cc1cccc([N+](=O)[O-])c1 | 126 °C |
| CC1(c2ccccc2)CC(C(=NNC(O)=S)c2cc3ccccc3o2)C1 (configuration not stated) | 191 to 192 °C |
| Cc1oc(S(=O)(=O)N2CCCCC2)cc1C(=O)O | 194 to 195 °C |
| O=C1CC(=O)NC(=O)N1 | 248 °C |
| CCOC(=O)c1ccccc1C(=O)c1ccccc1 | 59.5 °C |
| ClCC=Cc1ccccc1 | -19 °C |
| Cc1nnc(Sc2ccc(C=O)o2)n1C | 143 to 147 °C |
| c1ccc(-c2cc3ccccc3cn2)cc1 | 103 °C |
| Cc1ccc(-c2ccc(C=CC(=O)c3ccco3)o2)cc1 | 110 to 111 °C |
| Clc1cc(Cl)c2c(c1)oc1c(Cl)cc(Cl)cc12 | 177 °C |
| CCC(=N\NC(N)=O)/C(C)=N\NC(N)=O | 244 to 245 °C |
| CSc1nsc(SC)c1C(N)=O | 214 to 216 °C |
| Cc1ccc(P(c2ccccc2)c2ccccc2)cc1 | 66 to 68 °C |
| CC1CN(C2CCCCCCCCCCC2)CC(C)O1 (configuration not stated) | 71 °C |
